Data reported in ChEMBL document CHEMBL4145551, “Mitochondria-targeting indolizino[3,2-c]quinolines as novel class of photosensitizers for photodynamic anticancer activity” (Eur J Med Chem, 2018).
Calls of active or inactive are those of the source. No cut-off for these calls is given here.

Legend:
Calf thymus DNA [1] = assay: Binding affinity to calf thymus DNA assessed as red shift in absorption maxima; type: nucleic-acid assay; conditions: Bos taurus
Calf thymus DNA [2] = assay: Binding affinity to calf thymus DNA assessed as red shift in emission maxima; type: nucleic-acid assay; conditions: Bos taurus
[3] = Induction of singlet oxygen production assessed as photodegradation of DPBF by measuring quantum yield after irradiation with 356 nanometer light by UV-Visible spectroscopic analysis; type: functional
A549 [4] = assay: Photocytotoxicity against human A549 cells assessed as reduction in cell viability preincubated for 1 hr followed blue LED light irradiation for 5 mins and measured after 24 hrs by MTT assay; type: functional, cell-based
A549 [5] = assay: Photocytotoxicity against human A549 cells assessed as reduction in cell viability preincubated for 1 hr followed blue LED light irradiation for 10 mins and measured after 24 hrs by MTT assay; type: functional, cell-based
MCF7 [6] = assay: Photocytotoxicity against human MCF7 cells assessed as reduction in cell viability preincubated for 1 hr followed blue LED light irradiation for 10 mins and measured after 24 hrs by MTT assay; type: functional, cell-based
HeLa [7] = assay: Photocytotoxicity against human HeLa cells assessed as reduction in cell viability preincubated for 1 hr followed blue LED light irradiation for 5 mins and measured after 24 hrs by MTT assay; type: functional, cell-based
[8] = Dark toxicity in human A549 cells assessed as reduction in cell viability up to 10 uM measured after 24 hrs by MTT assay; type: cell-based; conditions: a549, 24 h
[9] = Dark toxicity in human MCF7 cells assessed as reduction in cell viability up to 10 uM measured after 24 hrs by MTT assay; type: cell-based; conditions: mcf7, 24 h
[10] = Dark toxicity in human HeLa cells assessed as reduction in cell viability up to 10 uM measured after 24 hrs by MTT assay; type: cell-based
DNA [11] = assay: Induction of Escherichia coli pBR322 DNA cleavage at 20 uM irradiated with blue LED light after 30 mins in presence of hydroxyl radical scavenger mannitol by agarose gel electrophoresis method; type: nucleic-acid assay
HeLa [12] = assay: Induction of ROS generation in human HeLa cells preincubated for 1 hr followed by blue LED light irradiation for 15 mins by DHE staining based HCS analysis; type: functional, cell-based
[13] = Drug uptake in human HeLa cell nucleus at 10 uM after 1 hr by mitotracker red staining based confocal laser scanning microscopic method; type: ADME, subcellular
[14] = Drug uptake in human HeLa cell mitochondria at 10 uM after 1 hr by mitotracker red staining based confocal laser scanning microscopic method; type: ADME
HeLa [15] = assay: Photocytotoxicity against human HeLa cells assessed as induction of mitochondrial membrane potential depolarization at 10 uM preincubated for 1 hr followed by blue LED light irradiation for 5 mins by TMRE staining based confocal microscopic method; type: functional, cell-based
HeLa [16] = assay: Photocytotoxicity against human HeLa cells assessed as cell membrane blebbing at 10 uM preincubated for 1 hr followed by blue LED light irradiation for 5 mins by differential interference contrast imaging analysis; type: functional, cell-based
[17] = Drug uptake in human HeLa cell mitochondria at 10 uM incubated for 1 to 2 hrs under 488 nanometer laser light irradiation by confocal microscopic method; type: ADME
[18] = Drug uptake in human MCF7 cell mitochondria at 10 uM incubated for 1 to 2 hrs under 488 nanometer laser light irradiation by confocal microscopic method; type: ADME; conditions: mcf7, 10 µM
[19] = Drug uptake in mouse NIH/3T3 cell mitochondria at 10 uM incubated for 1 to 2 hrs under 488 nanometer laser light irradiation by confocal microscopic method; type: ADME; conditions: nih3t3, 10 µM
HeLa [20] = assay: Photocytotoxicity against human HeLa cells assessed as cytoplasmic shrinkage at 10 uM preincubated for 1 hr followed by 488 nanometer laser light irradiation and measured after 8 to 10 mins by confocal microscopic method; type: functional, cell-based
MCF7 [21] = assay: Photocytotoxicity against human MCF7 cells assessed as cytoplasmic shrinkage at 10 uM preincubated for 1 hr followed by 488 nanometer laser light irradiation and measured after 8 to 10 mins by confocal microscopic method; type: functional, cell-based
NIH3T3 = assay: Cytotoxicity against mouse NIH/3T3 cells assessed as cytoplasmic shrinkage at 10 uM preincubated for 1 hr followed by 488 nanometer laser light irradiation and measured after 16 mins by confocal microscopic method; type: cell-based; conditions: nih3t3, 16 min
DNA [22] = assay: Binding affinity to Escherichia coli pBR322 DNA assessed as increase in test compound fluorescence up to 10 uM after 30 mins under blue LED light irradiation relative to control; type: nucleic-acid assay
DNA [23] = assay: Binding affinity to Escherichia coli pBR322 DNA assessed as increase in test compound fluorescence irradiated with blue LED light for 5 to 20 mins; type: nucleic-acid assay
HeLa [24] = assay: Photocytotoxicity against human HeLa cells assessed as increase in cleaved caspase-3 protein expression preincubated for 1 hr followed by blue LED light irradiation for 10 mins and measured after 18 hrs by Western blot analysis; type: functional, cell-based
HeLa [25] = assay: Photocytotoxicity against human HeLa cells assessed as increase in cleaved PARP protein expression preincubated for 1 hr followed by blue LED light irradiation for 10 mins and measured after 18 hrs by Western blot analysis; type: functional, cell-based
HeLa [26] = assay: Photocytotoxicity against human HeLa cells assessed as plasma membrane blebbing at 0.5 uM preincubated for 1 hr followed by blue LED light irradiation for 5 mins and measured after 13 hrs by propidium iodide staining based fluorescence microscopic method; type: functional, cell-based
HeLa [27] = assay: Photocytotoxicity against human HeLa cells assessed as cell shrinkage at 10 uM preincubated for 1 hr followed by blue LED light irradiation for 5 mins and measured after 13 hrs by propidium iodide staining based fluorescence microscopic method; type: functional
[28] = Dark toxicity in human HeLa cells assessed as morphological changes at 10 uM measured after 14 hrs by propidium iodide staining based fluorescence microscopic method; type: cell-based
HeLa [29] = assay: Photocytotoxicity against human HeLa cells assessed as plasma membrane blebbing up to 10 uM preincubated for 1 hr followed by blue LED light irradiation for 5 mins and measured after 13 hrs by Hoechst 33258 staining based fluorescence microscopic method; type: functional, cell-based
HeLa [30] = assay: Photocytotoxicity against human HeLa cells assessed as DNA fragmentation up to 10 uM preincubated for 1 hr followed by blue LED light irradiation for 5 mins and measured after 13 hrs by Hoechst 33258 staining based fluorescence microscopic method; type: functional, cell-based
HeLa [31] = assay: Photocytotoxicity against human HeLa cells assessed as cellular shrinkage up to 10 uM preincubated for 1 hr followed by blue LED light irradiation for 5 mins and measured after 13 hrs by Hoechst 33258 staining based fluorescence microscopic method; type: functional, cell-based
HeLa [32] = assay: Photocytotoxicity against human HeLa cells assessed as plasma membrane blebbing at 5 uM preincubated for 1 hr followed by blue LED light irradiation for 10 to 30 mins and measured after 2.5 hrs by holotomographic method; type: functional, cell-based
HeLa [33] = assay: Photocytotoxicity against human HeLa cells assessed as cell shrinkage at 5 uM preincubated for 1 hr followed by blue LED light irradiation for 10 to 30 mins and measured after 2.5 hrs by holotomographic method; type: functional, cell-based
HeLa [34] = assay: Photocytotoxicity against human HeLa cells assessed as membrane protrusion at 5 uM preincubated for 1 hr followed by blue LED light irradiation for 10 to 30 mins and measured after 2.5 hrs by holotomographic method; type: functional, cell-based
HeLa [35] = assay: Photocytotoxicity against human HeLa cells assessed as membrane protrusion at 20 uM preincubated for 1 hr followed by blue LED light irradiation for 10 mins and measured after 2.5 hrs by holotomographic method; type: functional, cell-based

Activity (Calf thymus DNA [1]): 57 nm | Activity (Calf thymus DNA [2]): 36 nm | Activity (DNA [11]): Active | Drug uptake [13]: Not Active | Drug uptake [14]: Active | Drug uptake [17]: Active | Drug uptake [18]: Active | Drug uptake [19]: Active | fold change (FC) (DNA [22]): < 4 | Activity (DNA [23]): Active
SMILES: Cc1cccn2c1cc1c3ccccc3nc(-c3ccco3)c12
Activity [3]: 0.33 | Activity (A549 [4]): Dose-dependent effect | IC50 (A549 [4]; A549, light or radiation study): 2960 nM | Activity (A549 [5]): Dose-dependent effect | IC50 (A549 [5]; A549, light or radiation study): 2370 nM | Activity (MCF7 [6]): Dose-dependent effect | IC50 (MCF7 [6]; MCF7, light or radiation study): 1670 nM | Activity (HeLa [7]): Dose-dependent effect | IC50 (HeLa [7]; light or radiation study): 1760 nM | Activity [8]: Non-Toxic | Activity [9]: Non-Toxic | Activity [10]: Non-Toxic | Activity (HeLa [12]): Dose-dependent effect | Activity (HeLa [15]): Active | Activity (HeLa [16]): Active | Activity (HeLa [20]): Active | Activity (MCF7 [21]): Active | Activity (NIH3T3): Non-Toxic | Activity (HeLa [24]): Dose-dependent effect | Activity (HeLa [25]): Dose-dependent effect | Activity (HeLa [26]): Active | Activity (HeLa [27]): Active | Activity [28]: Non-Toxic | Activity (HeLa [29]): Active | Activity (HeLa [30]): Active | Activity (HeLa [31]): Active | Activity (HeLa [32]): Active | Activity (HeLa [33]): Active | Activity (HeLa [34]): Active | Activity (HeLa [35]): Active
